From US5079237A, “Inclusion complex of nicardipine or its hydrochloride with beta-cyclodextrin and a sustained release pharmaceutical preparation containing the same” (priority 1988, dated 1992)
Structures can show the parent of a compound that is named as a salt.

Columns and labels:
[1] = Solubility in water of nicardipine (hydrochloride), complexed and non-complexed (Example 3); type: physicochemical; conditions: room temperature, saturated solution
Description: Solubility in water Comparative solubility of nicardipine and its hydrochloride resp. alone and of its inclusion complex with beta-cyclodextrin. The concentrations of the dissolved nicardipine and its hydrochloride resp. at room temperature were determined in clear filtrates of the saturated solutions by liquid chromatography using the external standard method.

[2] = cited from earlier work
[3] = Differential scanning calorimetry: thermal stability (Example 4); type: physicochemical; conditions: DSC
Description: Nicardipine hydrochloride melts at 160° C., its thermal decomposition beginning at about 200° C. Beta-cyclodextrin contains combined water, which begins to separate off the sample already at about 40° C. The dehydratation of beta-cyclodextrin is completed at about 100° C. Anhydrous beta-cyclodextrin is stable up to 270° C., when thermal decomposition starts, which becomes intensive at 300° C. The behaviour of the inclusion complex of nicardipine hydrochloride with beta-cyclodextrin at the thermoanalytical assay is quite different. After the initial slight loss of weight at temperatures below 150° C., which can be attributed to the adsorbed moisture, the substance is stable up to about 220° C, when thermal decomposition sets in. […] The DSC scans of nicardipine hydrochloride, beta-cyclodextrin, the physical mixture of nicardipine hydrochloride and beta-cyclodextrin and of the inclusion complex of nicardipine hydrochloride with beta-cyclodextrin clearly indicate the formation of the inclusion complex of nicardipine hydrochloride with beta-cyclodextrin. Thus, the differential scanning calorimetry measurements are in accordance with the powder X-ray diffraction patterns.

[4] = Acute toxicity (LD50) in rats after p.o. administration (Example 6); type: in vivo; conditions: rat, in vivo, po; for mortality at 24 h: read-out: % of perished animals after 24 hrs; for mortality at 360 h: read-out: % of perished animals after 15 days; for LD50 at 360 h: rats, p.o., Litchfield-Wilcoxon, read-out: LD50 after 15 days
Description: (§1) In toxicological tests acute toxicities (LD50) of nicardipine hydrochloride and of its inclusion complex with beta-cyclodextrin were determined in mice and rats. The complex contained 26.8% of nicardipine hydrochloride.
(§2) Albino laboratory mice weighing 18 to 24 g and rats weighing 180 to 240 g of both sexes were used. Nicardipine hydrochloride was administered in the following doses:
(§3) The volume of the administered suspension was in mice 0.2 to 0.4 ml/20 g of body weight and in rats 0.8 to 2.4 ml/200 g of body weight.
(§4) The inclusion complex of nicardipine hydrochloride with beta-cyclodextrin was administered in the following doses:
(§5) rats: 5000 mg/kg of body weight, corresponding to
(§6) 1340 mg of nicardipine/kg of body weight,
(§7) 11100 mg/kg of body weight, corresponding to
(§8) 2975 mg of nicardipine/kg of body weight,
(§9) 18500 mg/kg of body weight, corresponding to
(§10) 4958 mg of nicardipine/kg of body weight.
(§11) The volume of the administered suspension was in mice 0.6 ml/20 g of body weight and in rats 1.2 to 4.4 ml/200 g of body weight. The animals were left without food for 18 hours before the administration. After the administration the animals were put under observation and the symptoms of poisoning or behaviour changes were recorded for another 15 days. During the tests the animals were given food and water ad libitum.
(§12) The results were statistically evaluated according to the Litchfield-Wilcoxon method (J. Pharmacol. Exp. Therap. 96, 99 (1949)).

rats = test: as above; type: in vivo; conditions: rats, p.o.; for LD50 after 15 days: Litchfield-Wilcoxon, 21600 min
Description: as §1, §2, §3, §4, §5, §6, §7, §8, §9, §10, §11, §12

[5] = Acute toxicity (LD50) in mice after p.o. administration (Example 6); type: in vivo; conditions: mouse, in vivo, po; for mortality at 24 h: read-out: % of perished animals after 24 hrs; for mortality at 360 h: read-out: % of perished animals after 15 days; for LD50 at 360 h: mice, p.o., Litchfield-Wilcoxon, read-out: LD50 after 15 days
Description: as §1, §2, §3, §4
(§13) mice: 18500 mg/kg of body weight, corresponding to
(§14) 4958 mg of nicardipine/kg of body weight;
as §11, §12

mice = test: as above; type: in vivo; conditions: mice, p.o.; for LD50 after 15 days: Litchfield-Wilcoxon, 21600 min
Description: as §1, §2, §3, §4, §13, §14, §11, §12

[6] = Dissolution rate in artificial biological fluids, Paddle Method, USP XXI (Example 5); type: physicochemical; conditions: for % dissolution: 37° C., mean of three tests
Description: Dissolution rates of the complexed and the non-complexed nicardipine and its hydrochloride
40 mg of nicardipine hydrochloride or the equivalent amount of […] of the inclusion complex of nicardipine with beta-cyclodextrin were used.
The dissolution tests were performed in artificial gastric juice of pH 1.2 and in artificial intestinal juices of pH 6.0, 6.5 and 7.4 at the temperature of 37° C.±0.5° C. The volume of the artificial biological fluids was 1000 ml. The rotation speed of the paddle mixer was 100 rpm. The quantities of the dissolved nicardipine hydrochloride in the test samples were determined spectrophotometrically (λmax =240 nm).

[7] = 2000 mg/kg, rats M, 2000 mg/kg p.o.
[8] = 2500 mg/kg, rats M, 2500 mg/kg p.o.
[9] = 3000 mg/kg, rats F, 3000 mg/kg p.o.
[10] = 3500 mg/kg, rats M, 3500 mg/kg p.o.
[11] = 4000 mg/kg, rats F, 4000 mg/kg p.o.
[12] = 5000 mg/kg, rats F, 5000 mg/kg p.o.
[13] = 5000 mg/kg, rats M, 5000 mg/kg p.o.
[14] = 6000 mg/kg, rats F, 6000 mg/kg p.o.
[15] = 1500 mg/kg, mice F, 1500 mg/kg p.o.
[16] = 1500 mg/kg, mice M, 1500 mg/kg p.o.
[17] = 3000 mg/kg, mice F, 3000 mg/kg p.o.
[18] = 3000 mg/kg, mice M, 3000 mg/kg p.o.
[19] = 4000 mg/kg, mice F, 4000 mg/kg p.o.
[20] = 5000 mg/kg, mice F, 5000 mg/kg p.o.
[21] = 5000 mg/kg, mice M, 5000 mg/kg p.o.
[22] = 6000 mg/kg, mice F, 6000 mg/kg p.o.
[23] = 6000 mg/kg, mice M, 6000 mg/kg p.o.

SMILES: COC(=O)C1=C(C)NC(C)=C(C(=O)OCCN(C)Cc2ccccc2)C1c1cccc([N+](=O)[O-])c1 (centres unmarked) [nicardipine hydrochloride]
- solubility [1]: 1500 µg/mL
- solubility at higher pH values ([2]; higher pH values): very poor
- solubility at low pH values ([2]; low pH values): good
- onset of thermal decomposition (stable up to) [3]: about 200 °C
- mortality at 24 h [4, 7]: 40%
- mortality at 360 h [4, 7]: 40%
- mortality at 24 h [4, 8]: 40%
- mortality at 360 h [4, 8]: 40%
- mortality at 24 h [4, 9]: 0%
- mortality at 360 h [4, 9]: 0%
- mortality at 24 h [4, 10]: 60%
- mortality at 360 h [4, 10]: 60%
- mortality at 24 h [4, 11]: 10%
- mortality at 360 h [4, 11]: 20%
- mortality at 24 h [4, 12]: 44.4%
- mortality at 360 h [4, 12]: 66.6%
- mortality at 24 h [4, 13]: 80%
- mortality at 360 h [4, 13]: 80%
- mortality at 24 h [4, 14]: 80%
- mortality at 360 h [4, 14]: 80%
- LD50 at 360 h ([4]; F): 4790 mg/kg
- LD50 at 360 h ([4]; M): 2900 mg/kg
- LD50 after 15 days (rats; F): 4791 (4206-5458) mg/kg
- LD50 after 15 days (rats; M): 2900 (1635-5143) mg/kg
- recovery of animals (rats): recovered after 24 hours
- symptoms of poisoning (rats): dyspnoea and paresis
- mortality at 24 h [5, 15]: 20%
- mortality at 360 h [5, 15]: 20%
- mortality at 24 h [5, 16]: 0%
- mortality at 360 h [5, 16]: 0%
- mortality at 24 h [5, 17]: 40%
- mortality at 360 h [5, 17]: 40%
- mortality at 24 h [5, 18]: 30%
- mortality at 360 h [5, 18]: 40%
- mortality at 24 h [5, 19]: 30%
- mortality at 360 h [5, 19]: 50%
- mortality at 24 h [5, 20]: 40%
- mortality at 360 h [5, 20]: 70%
- mortality at 24 h [5, 21]: 40%
- mortality at 360 h [5, 21]: 70%
- mortality at 24 h [5, 22]: 90%
- mortality at 360 h [5, 22]: 90%
- mortality at 24 h [5, 23]: 90%
- mortality at 360 h [5, 23]: 100%
- LD50 at 360 h ([5]; F): 3640 mg/kg
- LD50 at 360 h ([5]; M): 3760 mg/kg
- LD50 after 15 days (mice; F): 3639 (2637-5022) mg/kg
- LD50 after 15 days (mice; M): 3756 (2815-5012) mg/kg
- recovery of animals (mice): recovered after 24 hours
- symptoms of poisoning (mice): dyspnoea and paresis
- dissolution, in words ([6]; gastric juice): dissolves quickly and completely
- % dissolution ([6]; gastric juice, pH 1.2, 10 min): 93.5%
- % dissolution ([6]; gastric juice, pH 1.2, 30 min): 100.2%
- % dissolution ([6]; intestinal juice, pH 6.0, 10 min): 50.2%
- % dissolution ([6]; intestinal juice, pH 6.0, 30 min): 58.7%
- % dissolution ([6]; intestinal juice, pH 6.5, 10 min): 35.5%
- % dissolution ([6]; intestinal juice, pH 6.5, 30 min): 39.0%
- % dissolution ([6]; intestinal juice, pH 7.4, 10 min): 1.0%
- % dissolution ([6]; intestinal juice, pH 7.4, 30 min): 1.3%
